{"source": "patent EP3797781A1", "about": "“USE OF EC-7072 AND SYNERGIC COMPOSITIONS THEREOF IN TREATMENT OF CHRONIC LYMPHOCYTIC LEUKEMIA” (priority 2019, dated 2021)", "tested_on": "isolated CLL cells", "experiment": "Western blotting of isolated CLL cells", "format": "cell-based, human", "description": "Isolated CLL cells were treated with 200 nM EC-7072 for 3, 8 and 12 hours and lysed with lysis buffer [50 mM Tris-HCl (pH 8), 150 mM NaCl, 1 mM EDTA, 1% NP-40, 20 mM NaF, EDTA-free protease inhibitor cocktail and phosSTOPTM (Roche)]. After heat denaturation, 25 µg protein were resolved on 10% and 15% SDS-PAGE gels and transferred to PVDF membranes (Sigma-Aldrich). Membranes were blocked with 5% BSA and incubated overnight at 4 °C with the corresponding primary antibodies (p-PLCγ2 (Y759), p-ERK1/2 (T202/Y204), p-STAT3 (Y705), p-LYN (Y507), STAT3 and GAPDH from Cell Signaling, and PLCγ2, ERK1/2, LYN, BCL-xL and Noxa from Santa Cruz Biotechnology). Blots were developed with secondary antibodies conjugated to IRDye680 or IRDye800 (Li-Cor Biosciences) and signal was detected on an Odyssey scanner.\nLevels of phosphorylated and total proteins were quantified following Western blotting by densitometric analysis employing ImageJ software (https://imagej.nih.gov/ij/). To determine relative protein amounts, signal intensities were first normalized to GAPDH and the ratio between phosphorylated and total proteins was then calculated.\nWestern blot analysis of BCL-xL and Noxa in isolated CLL cells (n = 3) treated with 200 nM EC-7072 for the indicated times was performed (Figure 6E).\nThe inhibition of the tonic BCR pathway by EC-7072 was evaluated by: • (i) incubating PBMCs from patients with CLL, following treatment with 200 nM EC-7072, for 8 hours. Surface expression of CD79A (Figure 7A), CD79B (Figure 7B) and IgM (Figure 7C) in leukemia cells (n = 5 - 6) was assessed by flow cytometry and the MFI was normalized to the control (DMSO) condition; • (ii) incubating isolated leukemia cells from patients with CLL (n = 10), following treatment with EC-7072 (200 nM), for 8 hours. Phosphorylation levels of p-SYK (Figure 7D), p-BTK (Figure 7E) and p-PLCy2 (Figure 7F) proteins and p-ERK1/2 (Figure 7G), p-AKT (Figure 7H), p-p65 NPκB (Figure 7I) and p-STAT3 (Figure 7J) were evaluated by phosphoflow and the MFI was normalized to the control (DMSO) from each individual patient; • (iii) incubating PBMCs from patients with CLL (n = 8), following treatment with EC-7072 (200 nM), for 8 hours. Viability was determined by DiOC6(3)/PI staining and normalized to the control (DMSO) condition for each individual patient to obtain the mean percentage of viable [DiOC6(3)^+] cells (Figure 7K); • (iv) incubating isolated CLL cells (n = 4) stimulated with CD40L (100 ng/mL) or IL-6 (40 ng/mL) for 15 minutes and detecting respective phosphorylation levels of p65 NF-κB (Figure 7L) and STAT3 (Figure 7M) by phosphoflow to obtain the mean MFI normalized to the control (DMSO) condition for each individual patient; • (v) incubating isolated leukemia cells from 3 patients with CLL, following treatment with 200 nM EC-7072, for 3, 8 and 12 hours. Protein lysates were immunoblotted to detect the phosphorylated (p-LYN, p-PLCγ2, p-STAT3 and p-ERK1/2) and total protein (LYN, PLCγ2, STAT3 and ERK1/2) levels (Figure 7N); • (vi) incubating isolated leukemia cells from 3 patients with CLL, following treatment with 200 nM EC-7072, for 3, 8 and 12 hours and immunoblotting of protein lysates to detect p-LYN, LYN, p-PLCγ2, PLCγ2, p-STAT3, STAT3, p-ERK1/2 and ERK1/2. […]", "key": {"[1]": {"settings": "200 nM, 3, 8 and 12 hours, 3 patients"}}, "data": [{"compound": "CO[C@@H]([C@@H]1Cc2cc3cc(O[C@H]4C[C@@H](O[C@H]5C[C@@H](O)[C@H](O)[C@@H](C)O5)[C@H](O)[C@@H](C)O4)c(C)c(O)c3c(O)c2C(=O)[C@H]1O[C@H]1C[C@@H](O[C@H]2C[C@@H](O[C@H]3C[C@](C)(O)[C@H](O)[C@@H](C)O3)[C@@H](O)[C@@H](C)O2)[C@H](O)[C@@H](C)O1)[C@@H](O)C(C)=O", "note": "[EC-7072, mithramycin SK]", "values": [{"measurement": "levels of p-STAT3 (Western blotting)", "setting": "[1]", "result": "diminished"}, {"measurement": "p-LYN, p-PLCγ2 and p-ERK1/2 (Western blotting)", "setting": "[1]", "result": "time-dependent reduction"}, {"measurement": "total amount of LYN, PLCγ2 and STAT3", "setting": "[1]", "result": "downregulate"}, {"measurement": "levels of the antiapoptotic protein BCL-xL", "setting": "200 nM, time-dependent, n = 3", "result": "decreased"}, {"measurement": "levels of the proapoptotic protein Noxa", "setting": "200 nM, time-dependent, n = 3", "result": "increase"}]}]}
